Data published in PMC8086025, “A benzopyran with antiarrhythmic activity is an inhibitor of Kir3.1-containing potassium channels” (The Journal of Biological Chemistry, 2021).
Entries after “also recorded” stand apart in the source; their conditions may differ. Ends that are not written are not given here.

Columns and labels:
5-HT2B = target: T1, 5-HT2B (Homo sapiens, UniProt P41595); test: Radioligand binding, [125I](±)DOI; details: reference compound run for the assay
T1 construct: expressed in transfected cells; host or cells: CHO cells
T1 sequence (P41595 whole entry): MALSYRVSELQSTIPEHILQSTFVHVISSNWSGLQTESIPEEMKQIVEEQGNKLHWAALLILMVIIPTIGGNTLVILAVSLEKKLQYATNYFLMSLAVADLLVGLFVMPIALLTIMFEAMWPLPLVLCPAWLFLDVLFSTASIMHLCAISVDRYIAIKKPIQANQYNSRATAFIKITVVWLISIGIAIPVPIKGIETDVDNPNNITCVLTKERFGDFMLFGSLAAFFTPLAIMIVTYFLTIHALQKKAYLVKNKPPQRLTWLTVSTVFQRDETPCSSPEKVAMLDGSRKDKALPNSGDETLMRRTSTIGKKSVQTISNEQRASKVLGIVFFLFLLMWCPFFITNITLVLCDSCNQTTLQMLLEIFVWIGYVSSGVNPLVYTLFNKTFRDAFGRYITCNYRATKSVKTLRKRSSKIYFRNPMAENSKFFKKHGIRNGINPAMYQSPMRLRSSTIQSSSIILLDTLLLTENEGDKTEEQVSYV

Muscarinic M5 = target: T2, Muscarinic M5 (Homo sapiens, UniProt P08912); test: Radioligand binding, [3H]4-DAMP; details: reference compound run for the assay
T2 construct: expressed in transfected cells; host or cells: CHO cells
T2 sequence (P08912 whole entry): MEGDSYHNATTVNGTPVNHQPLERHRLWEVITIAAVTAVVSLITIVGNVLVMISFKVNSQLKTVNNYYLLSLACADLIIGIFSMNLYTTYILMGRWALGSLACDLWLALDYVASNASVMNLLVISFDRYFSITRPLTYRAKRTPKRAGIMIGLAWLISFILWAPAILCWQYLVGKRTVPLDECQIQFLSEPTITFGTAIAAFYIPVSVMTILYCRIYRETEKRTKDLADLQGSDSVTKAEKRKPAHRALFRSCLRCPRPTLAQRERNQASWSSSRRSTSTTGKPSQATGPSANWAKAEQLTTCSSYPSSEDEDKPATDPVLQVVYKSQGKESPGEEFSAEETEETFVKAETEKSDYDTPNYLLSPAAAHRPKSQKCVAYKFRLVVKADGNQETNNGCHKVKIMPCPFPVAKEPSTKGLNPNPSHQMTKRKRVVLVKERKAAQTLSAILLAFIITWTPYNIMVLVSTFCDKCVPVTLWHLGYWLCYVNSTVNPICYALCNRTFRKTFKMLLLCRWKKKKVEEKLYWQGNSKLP

IKACh = test: In vivo ECG, carbachol-induced heart rate slowing in anesthetized mice; details: 300 μl of 200 μM i.p.
Experimental: We tested the in vivo effects of BP-G1 versus those of BP-G1(SR) on heart rate in anesthetized adult mice (Fig. 8). ECG was continuously recorded. Panel A is the ECG showing that after carbachol (300 μl of 200 μM) was administered, i.p. (red mark), the heart decelerated, with a visible RR prolongation. About 10 min after carbachol injection, BP-G1 was delivered via the jugular vein (40 μl of 240 μM) (green mark). Within 5 min, there was a reversal of carbachol’s effects on the heart rate. Panel B is a control mouse showing heart rate slowing after carbachol administration (red mark).
Mice were anesthetized (1.5% isofluorane), and a 1.2 French octapolar catheter (Millar) with a drug delivery port was placed transvenously, through the jugular vein, into the right atrium. Continuous ECG was recorded using the Animal Bio Amp and PowerLab 4/35 Advanced Instruments apparatus. […] Saline control at the same volume was performed. Results are averages ±SD.

Kir3.1/4 channel = target: T3, Kir3.1/4 channel (Homo sapiens, UniProt P48544+P48549); test: TEVC in Xenopus oocytes, Kir3.1/4; assay type: cell-based; parameters: expressed in transfected cells; host or cells: Xenopus laevis oocytes (cRNA injection); details: 1 μM, TEVC
T3 sequence (P48549 1-501): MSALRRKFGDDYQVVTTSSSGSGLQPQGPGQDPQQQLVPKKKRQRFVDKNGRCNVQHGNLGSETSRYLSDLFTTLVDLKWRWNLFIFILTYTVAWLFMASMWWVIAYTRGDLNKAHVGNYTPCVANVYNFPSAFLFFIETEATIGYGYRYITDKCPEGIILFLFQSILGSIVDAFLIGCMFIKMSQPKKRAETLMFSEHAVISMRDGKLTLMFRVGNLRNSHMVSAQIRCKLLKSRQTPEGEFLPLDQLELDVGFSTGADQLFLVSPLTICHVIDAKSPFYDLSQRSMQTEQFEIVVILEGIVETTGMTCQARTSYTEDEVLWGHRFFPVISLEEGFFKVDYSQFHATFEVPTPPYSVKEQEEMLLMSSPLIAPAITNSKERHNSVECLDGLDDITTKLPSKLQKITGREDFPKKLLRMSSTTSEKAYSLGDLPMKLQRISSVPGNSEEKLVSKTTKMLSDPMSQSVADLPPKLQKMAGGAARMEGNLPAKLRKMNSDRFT
T3 sequence (P48544 1-419): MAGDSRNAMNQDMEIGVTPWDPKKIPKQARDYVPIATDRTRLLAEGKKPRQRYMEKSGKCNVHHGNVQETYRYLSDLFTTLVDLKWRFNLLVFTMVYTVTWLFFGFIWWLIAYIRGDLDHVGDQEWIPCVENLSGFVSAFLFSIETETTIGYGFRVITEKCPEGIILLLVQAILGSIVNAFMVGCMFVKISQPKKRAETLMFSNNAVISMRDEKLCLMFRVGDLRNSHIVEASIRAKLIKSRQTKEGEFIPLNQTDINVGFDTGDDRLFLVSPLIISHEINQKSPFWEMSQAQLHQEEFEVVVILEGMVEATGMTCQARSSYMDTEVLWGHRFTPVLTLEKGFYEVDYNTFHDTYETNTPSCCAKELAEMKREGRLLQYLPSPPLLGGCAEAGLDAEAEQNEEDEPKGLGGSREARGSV
Experimental: X. laevis oocytes were isolated and microinjected as previously described ([6]). Human Kir3.1, mouse Kir3.2, and human Kir3.4 DNA constructs were used for electrophysiology experiments. All cRNA constructs were injected in the amount of 2 ng per oocyte. Injected oocytes were incubated for 2 to 3 days at 18 °C to allow for expression. Whole-cell oocyte currents were then measured using a GeneClamp 500 amplifier (Axon Instruments). Microelectrodes had resistances of 0.5 to 1 megohm using a 3M KCl solution in 1.4% agarose. Oocytes were perfused with a low K^+ (LK) solution ND96 (2 mM KCl, 96 mM NaCl, 1 mM MgCl2, 1.8 mM CaCl2, 5 mM HEPES-Na) to establish a baseline for the recordings. Basal current was measured in a high potassium (HK) solution ND96K (96 mM KCl, 10 mM HEPES-K, 1 mM MgCl2, 1.8 mM CaCl2). To block the current, the oocyte chamber was perfused with 4 mM BaCl2 in ND96K. Only the Barium-sensitive current was used for statistical analysis. To measure the inhibitory activity of the channels, 1 μM BP-G1 in ND96K (HK) was used. Typically, oocytes were held at 0 mV (EK) and the current was monitored constantly using a ramp protocol with a command potential from −80 to +80 mV. Current amplitude was measured at the end of a 1 s sweep. All currents were analyzed when they reached steady state. Error bars in the figures represent SD (N > 4).

Nav1.5 = Nav1.5 (Homo sapiens, UniProt Q14524); details: read-out: Published IC50, Nav1.5 (1Hz); published NTC-801 data ref 27; cited from earlier work
Chain of Nav1.5 (Q14524 whole entry): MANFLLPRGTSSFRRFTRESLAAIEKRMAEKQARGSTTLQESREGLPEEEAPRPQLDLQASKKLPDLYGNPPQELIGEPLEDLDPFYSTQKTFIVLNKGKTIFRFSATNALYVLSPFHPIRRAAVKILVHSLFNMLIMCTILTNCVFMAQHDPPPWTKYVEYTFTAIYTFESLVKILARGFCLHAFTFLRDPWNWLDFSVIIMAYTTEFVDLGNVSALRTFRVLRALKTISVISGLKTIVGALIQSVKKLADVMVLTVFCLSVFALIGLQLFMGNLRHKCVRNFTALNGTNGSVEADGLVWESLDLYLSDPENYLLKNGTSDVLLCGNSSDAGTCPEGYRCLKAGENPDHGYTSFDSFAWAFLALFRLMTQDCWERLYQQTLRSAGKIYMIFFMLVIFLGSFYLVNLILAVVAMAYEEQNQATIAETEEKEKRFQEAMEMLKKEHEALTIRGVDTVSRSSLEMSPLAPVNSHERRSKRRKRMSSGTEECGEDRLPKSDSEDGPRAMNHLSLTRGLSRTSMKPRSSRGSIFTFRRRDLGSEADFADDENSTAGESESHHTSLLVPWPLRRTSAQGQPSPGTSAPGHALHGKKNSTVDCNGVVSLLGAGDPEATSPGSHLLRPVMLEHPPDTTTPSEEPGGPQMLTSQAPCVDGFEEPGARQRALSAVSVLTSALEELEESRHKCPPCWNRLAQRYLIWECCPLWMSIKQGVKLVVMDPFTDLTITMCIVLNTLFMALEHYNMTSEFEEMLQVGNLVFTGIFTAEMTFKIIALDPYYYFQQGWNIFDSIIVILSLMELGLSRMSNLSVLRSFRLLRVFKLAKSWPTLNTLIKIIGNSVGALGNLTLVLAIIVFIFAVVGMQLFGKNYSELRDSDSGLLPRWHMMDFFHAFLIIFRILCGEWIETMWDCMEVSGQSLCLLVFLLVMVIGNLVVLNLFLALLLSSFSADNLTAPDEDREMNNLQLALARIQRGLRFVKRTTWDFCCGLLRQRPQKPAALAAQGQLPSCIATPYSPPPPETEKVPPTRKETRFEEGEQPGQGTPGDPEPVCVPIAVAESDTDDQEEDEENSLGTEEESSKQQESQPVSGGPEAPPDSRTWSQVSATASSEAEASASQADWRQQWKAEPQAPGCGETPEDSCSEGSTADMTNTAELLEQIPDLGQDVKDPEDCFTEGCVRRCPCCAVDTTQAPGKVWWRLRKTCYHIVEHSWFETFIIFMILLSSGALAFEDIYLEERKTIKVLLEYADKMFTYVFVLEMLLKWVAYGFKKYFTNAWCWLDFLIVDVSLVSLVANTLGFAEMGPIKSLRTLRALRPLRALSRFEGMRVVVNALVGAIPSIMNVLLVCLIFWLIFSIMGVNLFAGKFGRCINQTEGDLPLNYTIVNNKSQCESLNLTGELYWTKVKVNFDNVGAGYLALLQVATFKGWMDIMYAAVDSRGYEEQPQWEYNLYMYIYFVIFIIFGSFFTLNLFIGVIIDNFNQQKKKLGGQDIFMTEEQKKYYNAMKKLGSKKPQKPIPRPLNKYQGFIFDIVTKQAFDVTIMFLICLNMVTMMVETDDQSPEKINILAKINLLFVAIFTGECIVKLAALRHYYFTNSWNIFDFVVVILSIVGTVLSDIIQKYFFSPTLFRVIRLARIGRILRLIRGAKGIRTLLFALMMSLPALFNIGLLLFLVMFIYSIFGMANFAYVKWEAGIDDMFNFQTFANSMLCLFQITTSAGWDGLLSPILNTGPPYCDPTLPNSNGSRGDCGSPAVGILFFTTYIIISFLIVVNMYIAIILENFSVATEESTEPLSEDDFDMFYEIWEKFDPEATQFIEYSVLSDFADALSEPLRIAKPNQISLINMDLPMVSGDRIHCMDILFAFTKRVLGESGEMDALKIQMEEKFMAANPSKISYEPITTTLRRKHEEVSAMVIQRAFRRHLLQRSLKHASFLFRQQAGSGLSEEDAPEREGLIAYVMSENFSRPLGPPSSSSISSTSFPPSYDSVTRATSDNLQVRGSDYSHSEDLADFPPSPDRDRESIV

Kir2.1 = target: T4, Kir2.1 (Homo sapiens, UniProt P63252); details: published NTC-801 data ref 27; cited from earlier work
T4 construct: host or cells: HEK293

hERG = details: read-out: Published IC50, hERG; published NTC-801 data ref 27; cited from earlier work
HCN4 = tested on: HCN4; parameters: method as in earlier work; details: published NTC-801 data ref 27; cited from earlier work
Kir3.1/3.4 = tested on: Kir3.1/3.4; parameters: method as in earlier work; details: oocyte; published NTC-801 data ref 27; cited from earlier work
GP IKACh = tested on: GP IKACh; parameters: method as in earlier work; details: published NTC-801 data ref 27; cited from earlier work
Kv4.3 = Kv4.3 (Homo sapiens, UniProt Q9UK17); details: published NTC-801 data ref 27; cited from earlier work
Chain of Kv4.3 (Q9UK17 whole entry): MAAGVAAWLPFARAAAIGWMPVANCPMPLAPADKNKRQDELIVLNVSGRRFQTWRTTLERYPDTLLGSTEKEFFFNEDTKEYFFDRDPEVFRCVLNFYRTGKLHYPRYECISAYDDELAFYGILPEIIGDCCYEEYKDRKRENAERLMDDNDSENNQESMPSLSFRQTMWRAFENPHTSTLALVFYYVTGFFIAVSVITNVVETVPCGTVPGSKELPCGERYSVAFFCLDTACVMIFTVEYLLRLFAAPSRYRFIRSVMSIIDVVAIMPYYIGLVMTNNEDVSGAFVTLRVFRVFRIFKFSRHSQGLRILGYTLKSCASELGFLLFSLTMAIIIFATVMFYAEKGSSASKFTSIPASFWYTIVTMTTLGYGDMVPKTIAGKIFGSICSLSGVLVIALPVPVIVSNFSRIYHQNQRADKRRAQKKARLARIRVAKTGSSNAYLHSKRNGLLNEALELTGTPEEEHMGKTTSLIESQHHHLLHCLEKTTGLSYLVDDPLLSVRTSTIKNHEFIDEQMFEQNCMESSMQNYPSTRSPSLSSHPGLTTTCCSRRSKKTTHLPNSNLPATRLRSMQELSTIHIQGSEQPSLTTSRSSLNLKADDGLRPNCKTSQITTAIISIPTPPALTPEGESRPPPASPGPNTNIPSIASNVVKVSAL

Kv1.5 = Kv1.5 (Homo sapiens, UniProt P22460); details: published NTC-801 data ref 27; cited from earlier work
Chain of Kv1.5 (P22460 whole entry): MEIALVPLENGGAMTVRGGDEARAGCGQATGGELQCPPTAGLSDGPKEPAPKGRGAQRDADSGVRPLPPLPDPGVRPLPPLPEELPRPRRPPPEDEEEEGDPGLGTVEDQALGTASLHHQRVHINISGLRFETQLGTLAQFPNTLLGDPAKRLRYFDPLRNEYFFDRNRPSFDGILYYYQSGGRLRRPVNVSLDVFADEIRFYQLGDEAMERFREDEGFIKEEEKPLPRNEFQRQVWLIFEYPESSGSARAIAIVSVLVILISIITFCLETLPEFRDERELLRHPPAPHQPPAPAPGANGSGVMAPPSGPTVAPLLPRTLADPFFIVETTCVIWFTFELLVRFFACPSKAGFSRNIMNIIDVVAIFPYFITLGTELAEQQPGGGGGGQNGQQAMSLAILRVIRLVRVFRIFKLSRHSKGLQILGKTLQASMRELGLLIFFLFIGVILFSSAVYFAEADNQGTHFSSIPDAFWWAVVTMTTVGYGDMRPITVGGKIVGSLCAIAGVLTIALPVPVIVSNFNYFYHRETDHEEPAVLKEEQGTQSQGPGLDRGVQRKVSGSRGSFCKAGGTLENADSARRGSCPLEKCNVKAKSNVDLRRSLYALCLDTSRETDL

Cav1.2 = details: read-out: Published IC50, Cav1.2; ICa,L; published NTC-801 data ref 27; cited from earlier work
Kir6.2/SUR2A = target: T5, Kir6.2/SUR2A (Homo sapiens, UniProt O60706+Q14654); details: IKATP; published NTC-801 data ref 27; cited from earlier work
T5 construct: Andrew Tinker, UCL; host or cells: HEK293

Kv7.1/KCNE1 = details: published NTC-801 data ref 27; cited from earlier work
Kir3.1/3.2 = tested on: Kir3.1/3.2; parameters: method as in earlier work; details: published NTC-801 data ref 27; cited from earlier work
5-HT2C = target: T6, 5-HT2C (Homo sapiens, UniProt P28335); test: Radioligand binding, [3H]mesulergine; details: read-out: Reference: IC50
T6 construct: expressed in transfected cells; host or cells: HEK-293 cells
T6 sequence (P28335 33-458): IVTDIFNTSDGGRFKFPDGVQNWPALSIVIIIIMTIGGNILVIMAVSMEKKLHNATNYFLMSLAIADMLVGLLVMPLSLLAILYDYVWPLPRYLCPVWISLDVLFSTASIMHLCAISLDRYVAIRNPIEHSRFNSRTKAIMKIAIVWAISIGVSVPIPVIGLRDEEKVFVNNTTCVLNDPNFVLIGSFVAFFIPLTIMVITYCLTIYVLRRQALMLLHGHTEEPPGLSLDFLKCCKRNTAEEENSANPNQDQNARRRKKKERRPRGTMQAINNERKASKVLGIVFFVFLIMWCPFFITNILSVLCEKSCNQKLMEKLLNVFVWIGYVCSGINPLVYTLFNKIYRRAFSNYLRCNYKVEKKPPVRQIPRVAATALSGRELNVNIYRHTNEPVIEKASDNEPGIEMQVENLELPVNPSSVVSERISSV

Purinergic Channels P2X = test: Radioligand binding, [3H]a,b-MeATP, rat urinary bladder; details: reference compound run for the assay
Purinergic Channels P2Y = test: Radioligand binding, [35S]dATPaS; parameters: species or system rat; details: reference compound run for the assay
[1] = target: Benzodiazepine BDZ Central; test: Radioligand binding, [3H]flunitrazepam; parameters: species or system rat; details: read-out: Reference: IC50
[2] = target: GABA Cl- channel (GABA-gated); test: Radioligand binding, [35S]TBPS; parameters: species or system rat; details: reference compound run for the assay
Adrenergic α2 = test: Radioligand binding, [3H]prazosin; parameters: species or system rat; details: reference compound run for the assay
Chemokines CCR1 = target: T7, Chemokines CCR1 (Homo sapiens, UniProt P32246); test: Radioligand binding, [125I]MIP-1a; details: reference compound run for the assay
T7 construct: expressed in transfected cells; host or cells: HEK-293 cells
T7 sequence (P32246 1-355): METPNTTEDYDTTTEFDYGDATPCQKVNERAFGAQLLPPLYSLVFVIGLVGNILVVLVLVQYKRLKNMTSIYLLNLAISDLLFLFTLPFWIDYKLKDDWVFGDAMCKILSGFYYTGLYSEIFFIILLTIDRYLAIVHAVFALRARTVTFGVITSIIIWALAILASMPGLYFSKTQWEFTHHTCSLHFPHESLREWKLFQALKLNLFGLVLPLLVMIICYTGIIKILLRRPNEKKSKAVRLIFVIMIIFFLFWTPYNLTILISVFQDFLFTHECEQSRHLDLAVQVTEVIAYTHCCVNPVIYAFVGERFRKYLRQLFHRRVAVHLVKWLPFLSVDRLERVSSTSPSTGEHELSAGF

TNF-α = test: Radioligand binding, [125I]TNF-a, U-937 cells; details: reference compound run for the assay
SKCa = test: Radioligand binding, [125I]apamin; parameters: species or system rat; details: reference compound run for the assay
Bombesin BB = test: Radioligand binding, [125I][Tyr4]bombesin; parameters: species or system rat; details: reference compound run for the assay
Somatostatin sst = test: Radioligand binding, [125I]Tyr11-somatostatin-14, AtT-20 cells; details: reference compound run for the assay

COc1cc(CC(C)N)c(OC)cc1I (racemic) [(±)DOI]
IC50 (5-HT2B): 5 nM

C[N+]1(C)CCC(OC(=O)C(c2ccccc2)c2ccccc2)CC1 [4-DAMP]
IC50 (Muscarinic M5): 0.52 nM

C[N+](C)(C)CCOC(N)=O [Carbachol, carbachol, reference compound]
RR interval after carbachol (IKACh; BP-G1 group, baseline 155.2 ± 16.3 ms): 474.2 ± 60.7 ms | RR interval after carbachol (IKACh; saline control group, baseline 168.6 ± 10.7 ms): 476.7 ± 77.8 ms

Cc1ccnc2cc3c(cc12)OC(C)(C)C=C3 [GAT1572, 2,2,9-trimethyl-2H-pyrano[2,3-g]quinoline]
inhibitory activity on Kir3.1/4 channel (Kir3.1/4 channel): not active

Cc1cc(CO)nc2cc3c(cc12)OC(C)(C)C=C3 [GAT1573, (2,2,9-trimethyl-2H-pyrano[2,3-g]quinolin-7-yl)methanol]
inhibitory activity on Kir3.1/4 channel (Kir3.1/4 channel): not active

Cc1ccnc2cc3c(cc12)OC(C)(C)[C@H](O)[C@H]3NCCc1ccccc1 [GAT1588, (3R,4S)-2,2,9-trimethyl-4-(phenethylamino)-3,4-dihydro-2H-pyrano[2,3-g]quinolin-3-ol]
inhibitory activity on Kir3.1/4 channel (Kir3.1/4 channel): retained comparable inhibitory activity to BP-G1; also recorded: inhibited the channel with comparable activity to BP-G1

Cc1cc(CO)nc2cc3c(cc12)OC(C)(C)[C@H](O)[C@H]3NCCc1ccccc1 [NTC-801]
IC50 (Nav1.5): 8300 nM | IC50 (Kir2.1): > 30000 nM | IC50 (hERG): > 30000 nM | IC50 (HCN4): > 30000 nM | IC50 (Kir3.1/3.4): 0.7 nM | IC50 (GP IKACh): 7 nM | IC50 (Kv4.3): > 11600 nM | IC50 (Kv1.5): > 30000 nM | IC50 (Cav1.2): > 30000 nM | IC50 (Kir6.2/SUR2A): 7800 nM | IC50 (Kv7.1/KCNE1): > 30000 nM | IC50 (Kir3.1/3.2): 34 nM

COc1cc(OC)c(C(=O)CCCCN2CCC3(CC2)NC(=O)NC3=O)cc1NS(=O)(=O)c1ccc(C(F)(F)F)cc1 [RS 102221]
IC50 (5-HT2C): 3.1 nM

Nc1ncnc2c1ncn2[C@@H]1O[C@H](COP(=O)(O)CP(=O)(O)OP(=O)(O)O)[C@@H](O)[C@H]1O [a,b-MeATP]
IC50 (Purinergic Channels P2X): 3.5 nM

Nc1ncnc2c1ncn2[C@H]1C[C@H](O)[C@@H](COP(O)(=S)OP(=O)(O)OP(=O)(O)O)O1 (stereo partly drawn) [dATPaS]
IC50 (Purinergic Channels P2Y): 20 nM

CN1C(=O)CN=C(c2ccccc2)c2cc(Cl)ccc21 [diazepam]
IC50 [1]: 8.6 nM

C=C(C)[C@@H]1[C@H]2OC(=O)[C@@H]1[C@]1(O)C[C@H]3O[C@]34C(=O)O[C@H]2[C@]14C [picrotoxinin, reference compound]
IC50 [2]: 150 nM

COc1cc2nc(N3CCN(C(=O)c4ccco4)CC3)nc(N)c2cc1OC [prazosin]
IC50 (Adrenergic α2): 0.182 nM

MIP-1a: assay reference compound
IC50 (Chemokines CCR1): 0.04 nM

TNF-a
IC50 (TNF-α): 0.1 nM

apamin (CNCKAPETALCARRCQQH; ends and bridges not checked; cysteine pairing not given here; UniProt P01500 28-45, looked up)
IC50 (SKCa): 0.0091 nM

bombesin
IC50 (Bombesin BB): 0.205 nM

somatostatin-14
IC50 (Somatostatin sst): 0.2 nM
